# Results as given in US8252814B2, “Agents and crystals for improving excretory potency of urinary bladder” (priority 1998, dated 2012).
# Marks after values point to notes of the source that are not given here.
# System: guinea pigs
# Experiment: Effect on urination efficiency in guinea pigs, Experimental Example 3
# Type: in vivo, Hartley male guinea pigs
# Details: for Efficiency of Urination (%) Before adm. / Efficiency of Urination (%) After adm. / Improvement of Efficiency (%): guinea pig; for Efficiency of Urination (%) Before adm.: before administration; for Efficiency of Urination (%) After adm. / Improvement of Efficiency (%): 30 minutes after administration
# Excerpt: Effect of the compounds of Reference Examples on urination efficiency was examined using Hartley male guinea pigs. Six to ten Hartley male guinea pigs weighing 346.5±3.5 g (SLC) were employed in each treated group. Guinea pigs were anesthetized with urethane, and held, and the bladder was exposed. Two polyethylene tubes (PE-50 and PE-100) were inserted into the bladder. One (PE-50) of the tubes was used in infusion of physiological saline, and the other (PE-100) was used for measurement of the internal pressure of the bladder. Saline was infused continuously at a flow rate of 0.3 mL/min. The infusion was stopped at the time when intermittent urination was confirmed at least 3 times, and the whole saline in bladder was removed. Again, infusion was started, and stopped at the time when a rise of the pressure in bladder was confirmed immediately before urination, and the time required for infusion and the weight of excreted urine were measured. Efficiency of urination was calculated from the following equation. Efficiency of urination (%)=100×Excreted volume (mL)/Infusion time (min)×0.3 (mL/min)
# Measurement was made at least 2 times before administration of the test compound, and then the test compound was dissolved in distilled water and administered intravenously. […] Effect by administration of solvents was also confirmed.
# The average measured value before administration of the test compounds was regarded as the value before administration, and applied to the paired-t test for a significant difference test with the value after the administration. (** p<0.01, * p<0.05)
structure (smiles),measurement,setting,value
"CN(CCCCCCN(C)C(=O)Oc1ccc[n+](C)c1)C(=O)Oc1ccc[n+](C)c1 [Distigmine, reference compound]",improvement of urination efficiency (in words),conclusion from Table 7,poor and it makes the efficiency worse at a high dose
same,Efficiency of Urination (%) Before adm.,0.1 mg/kg i.v. group,79.1 ± 5.7%
same,Efficiency of Urination (%) After adm.,0.1 mg/kg i.v.,90.9 ± 2.7%
same,Improvement of Efficiency (%),0.1 mg/kg i.v.,20.4%
same,Efficiency of Urination (%) Before adm.,0.3 mg/kg i.v. group (distigmine),67.4 ± 4.3%
same,Efficiency of Urination (%) After adm.,0.3 mg/kg i.v.,75.3 ± 3.7%
same,Improvement of Efficiency (%),0.3 mg/kg i.v.,14.7%
same,Efficiency of Urination (%) Before adm.,1 mg/kg i.v. group (distigmine),78.6 ± 6.7%
same,Efficiency of Urination (%) After adm.,1 mg/kg i.v.,67.8 ± 4.6%
same,Improvement of Efficiency (%),1 mg/kg i.v.,−11.6%
same,Efficiency of Urination (%) Before adm.,3 mg/kg i.v. group (distigmine),68.6 ± 7.0%
same,Efficiency of Urination (%) After adm.,3 mg/kg i.v.,48.1 ± 8.5%
same,Improvement of Efficiency (%),3 mg/kg i.v.,−30.9** %
